The values that follow are results of earlier work, collected in patent US20040142860A1, “Central nervous system-derived immune privilege factor and uses thereof” (Yeda Research and Development Co. Ltd., priority 1996, published 2004).

The subject of the data set is ganglion cell degradation in the retina. The settings on record: single or repeated injections into the vitreous body.

In the case of Threonine-Lysine-Proline [TKP], the “effect on axotomy-induced ganglion cell degradation in the retina” value was “retardation of axotomy-induced ganglion cell degradation in the retina”.
